Assay: pH of aqueous solution at dosing concentration
Details: aqueous solution at dosing concentration of 40 mg/mL

## C[C@@H]1C[C@H]2[C@@H]3CCC4=CC(=O)C=C[C@]4(C)[C@@]3(F)[C@@H](O)C[C@]2(C)[C@@]1(O)C(=O)COP(=O)(O)O [dexamethasone phosphate]
  pH of aqueous solution: 5.7

— patent US9539141B2, “System and method for ocular iontophoresis with buffering” (Eyegate Pharmaceuticals, Inc., priority 2008, dated 2017)
